Data reported in patent US11504396B2 (NKMAX Co., Ltd., priority 2016, dated 2022).

How the values were obtained:
[1] = tested on: SNU-387 (the liver cancer cell line); assay: 2 day cytotoxicity assay of kinase inhibitor pretreated NK cells against SNU-387; conditions: FIG. 7B; pretreatment 24 hrs; E:T 0.5:1, 48 hrs
[2] = tested on: SNU-245, the biliary tract cancer cell line; assay: 4 hr cytotoxic activity assay of pretreated NK cells against SNU-245; assay type: cell-based, human; conditions: FIG. 4; ponatinib 150 nM 24 hrs, washed; E:T 3:1, 1:1, 0.3:1 for 4 hrs
From the text: (§1) NK cells (effector cells) were co-cultured with cancer cells (target cells; SNU-245 and AGS cells) at the effector-to-target (E:T) cell count ratio (3:1, 1:1, 0.3:1) for 4 hrs.

[3] = tested on: MDA-MB-231 (the breast cancer cell line)
[4] = tested on: MIA PaCa-2 (pancreatic cancer) cells; assay: Cytotoxicity of NK cells to solid tumor cells (MIA PaCa-2); assay type: cell-based; conditions: NK cells treated with 200 nM Ponatinib for 6 hrs, co-cultured 48 hrs
NK cells = assay: Annexin V/7-AAD analysis of NK cells co-cultured with K562 cells; assay type: cell-based; conditions: FIG. 11; ponatinib 150 nM 24 hrs, then K562 cells E:T 5:1 for 4 hrs; vs untreated cells
Description: After incubation, NK cells were collected and analyzed for cell death by annexin-V and 7-AAD analysis.

[5] = tested on: THP-1 (acute monocyte leukemia) cells; assay: Cytotoxicity of NK cells to leukemia cells (THP-1); assay type: cell-based; conditions: NK cells treated with ponatinib 500 nM for 6 hrs, co-cultured 48 hours
From the text: (§2) IL-2 is a well-known activator of effector cells such as NK cells.

[6] = tested on: AGS, the stomach cancer cell line; assay: 4 hr cytotoxic activity assay of pretreated NK cells against AGS; assay type: cell-based, human; conditions: FIG. 4; ponatinib 150 nM 24 hrs, washed; E:T 3:1, 1:1, 0.3:1 for 4 hrs
From the text: as §1

[7] = tested on: HL-60 (acute promyelocytic leukemia) cells; assay: Cytotoxicity of NK cells to leukemia cells (HL-60); assay type: cell-based; conditions: NK cells treated with ponatinib 500 nM for 6 hrs, co-cultured 48 hours
From the text: as §2

[8] = tested on: Huh-7.5 (hepatic cell line showing subgenomic and genomic hepatitis C virus RNA replication); assay: Cytotoxicity of NK cells to virus-transformed cell lines (Huh-7.5); conditions: NK cells treated with ponatinib 150 nM for 16 hours, co-cultured 48 hours
human NK cells [9] = conditions: FIG. 9; NK cells treated with ponatinib 50 or 150 nM 24 hrs, tail vein, one day after injection; vs non-treated NK cells
[10] = tested on: KG-1 (acute myelogenous leukemia) cells; assay: Cytotoxicity of NK cells to leukemia cells (KG-1); assay type: cell-based; conditions: NK cells treated with ponatinib 500 nM for 6 hrs, co-cultured 48 hours
From the text: as §2

[11] = tested on: SNU-245 (the biliary tract cancer cell line); assay: 2 day cytotoxicity assay against SNU-245 cells (pretreated or formulated NK cells, or ponatinib alone)
[12] = tested on: HepG2.2.15 (hepatic cell transformed with hepatitis B virus and producing HBV); assay: Cytotoxicity of NK cells to virus-transformed cell lines (HepG2.2.15); conditions: NK cells treated with ponatinib 150 nM for 16 hours, co-cultured 48 hours
[13] = tested on: AGS (the stomach cancer cell line)
[14] = tested on: MDA-MB-231 (breast cancer) cells; assay: Cytotoxicity of NK cells to solid tumor cells (MDA-MB-231); assay type: cell-based; conditions: NK cells treated with 50 nM Ponatinib for 6 hrs, co-cultured 48 hrs
human NK cells [15] = assay: NK cell cycle analysis by propidium iodide staining and flow cytometry; conditions: FIG. 12; ponatinib 150 nM for 2 days; vs control NK cells
[16] = FIG. 5, high concentrations of ponatinib, 24 hrs, E:T 0.5:1 for 2 days
[17] = FIG. 8, ponatinib 150 nM 24 hrs, washed, E:T 0.5:1 for 2 days
[18] = FIG. 8, ponatinib added to target cells without NK cells, 2 days

Cc1ccc(C(=O)Nc2ccc(CN3CCN(C)CC3)c(C(F)(F)F)c2)cc1C#Cc1cnc2cccnn12 [Ponatinib, 3-(2-imidazo[1,2-b]pyridazin-3-ylethynyl)-4-methyl-N-[4-[(4-methylpiperazin-1-yl)methyl]-3-(trifluoromethyl)phenyl]benzamide]
anti-cancer cytotoxicity of kinase inhibitor pretreated NK cells against SNU-387 vs untreated NK cells [1]: higher anti-cancer cytotoxicity
cytotoxic activity of pretreated NK cells against SNU-245 [2]: strongly enhanced cytotoxicity
cytotoxic activity of ponatinib-pretreated NK cells against MDA-MB-231 [3, 16]: decreased
viability of MDA-MB-231 cancer cells co-cultured with NK cells pretreated with ponatinib [3, 17]: significantly decreased
cytotoxic activity of ponatinib treatment alone against MDA-MB-231 [3, 18]: did not show cytotoxic activity
Cytotoxicity of NK Cells to MIA PaCa-2 Cells ([4]; E:T = 0.1:1, With IL-2): 66 ± 5%
Cytotoxicity of NK Cells to MIA PaCa-2 Cells ([4]; E:T = 0.1:1, Without IL-2): 43 ± 8%
Cytotoxicity of NK Cells to MIA PaCa-2 Cells ([4]; E:T = 0.5:1, With IL-2): 100 ± 0%
Cytotoxicity of NK Cells to MIA PaCa-2 Cells ([4]; E:T = 0.5:1, Without IL-2): 78 ± 2%
apoptotic NK cell population (Annexin V+/7-AAD− and Annexin V+/7-AAD+) (NK cells): significantly reduced
necrotic NK cell population (Annexin V−/7-AAD+) (NK cells): significantly reduced
Cytotoxicity of NK Cells to THP-1 Cells ([5]; E:T = 0.1:1, With IL-2): 79 ± 4%
Cytotoxicity of NK Cells to THP-1 Cells ([5]; E:T = 0.1:1, Without IL-2): 20 ± 1%
Cytotoxicity of NK Cells to THP-1 Cells ([5]; E:T = 1:1, With IL-2): 99 ± 0%
Cytotoxicity of NK Cells to THP-1 Cells ([5]; E:T = 1:1, Without IL-2): 83 ± 1%
cytotoxic activity of pretreated NK cells against AGS [6]: strongly enhanced cytotoxicity
Cytotoxicity of NK Cells to HL-60 Cells ([7]; E:T = 0.1:1, With IL-2): 76 ± 9%
Cytotoxicity of NK Cells to HL-60 Cells ([7]; E:T = 0.1:1, Without IL-2): 13 ± 3%
Cytotoxicity of NK Cells to HL-60 Cells ([7]; E:T = 1:1, With IL-2): 98 ± 2%
Cytotoxicity of NK Cells to HL-60 Cells ([7]; E:T = 1:1, Without IL-2): 89 ± 4%
Cytotoxicity of NK Cells to Hur-7.5 Cells ([8]; E:T = 0.1:1, W/IL-2): 76%
Cytotoxicity of NK Cells to Hur-7.5 Cells ([8]; E:T = 0.1:1, W/O IL-2): 48%
Cytotoxicity of NK Cells to Hur-7.5 Cells ([8]; E:T = 0.5:1, W/IL-2): 96%
Cytotoxicity of NK Cells to Hur-7.5 Cells ([8]; E:T = 0.5:1, W/O IL-2): 78%
total human NK cells in blood of injected mice (human NK cells [9]): more human NK cells
viability of human NK cells in blood of injected mice (human NK cells [9]): higher viability
Cytotoxicity of NK Cells to KG-1 Cells ([10]; E:T = 0.1:1, With IL-2): 93 ± 1%
Cytotoxicity of NK Cells to KG-1 Cells ([10]; E:T = 0.1:1, Without IL-2): 81 ± 1%
Cytotoxicity of NK Cells to KG-1 Cells ([10]; E:T = 1:1, With IL-2): 99 ± 1%
Cytotoxicity of NK Cells to KG-1 Cells ([10]; E:T = 1:1, Without IL-2): 99 ± 1%
anti-cancer cytotoxicity of kinase inhibitor pretreated NK cells against SNU-245 vs untreated NK cells ([11]; FIG. 7A, pretreatment 24 hrs, E:T 0.5:1, 48 hrs): higher anti-cancer cytotoxicity
viability of SNU-245 cancer cells co-cultured with NK cells pretreated with ponatinib [11, 17]: significantly decreased
cytotoxic activity of ponatinib treatment alone against SNU-245 [11, 18]: did not show cytotoxic activity
Cytotoxicity of NK Cells to HepG2.2.15 Cells ([12]; E:T = 0.1:1, With IL-2): 75%
Cytotoxicity of NK Cells to HepG2.2.15 Cells ([12]; E:T = 0.1:1, Without IL-2): 59%
Cytotoxicity of NK Cells to HepG2.2.15 Cells ([12]; E:T = 0.5:1, With IL-2): 88%
Cytotoxicity of NK Cells to HepG2.2.15 Cells ([12]; E:T = 0.5:1, Without IL-2): 74%
cytotoxic activity of ponatinib-pretreated NK cells against AGS [13, 16]: decreased
viability of AGS cancer cells co-cultured with NK cells pretreated with ponatinib [13, 17]: significantly decreased
cytotoxic activity of ponatinib treatment alone against AGS [13, 18]: did not show cytotoxic activity
Cytotoxicity of NK Cells to MDA-MB-231 Cells ([14]; E:T = 0.1:1, With IL-2): 28 ± 5%
Cytotoxicity of NK Cells to MDA-MB-231 Cells ([14]; E:T = 0.1:1, Without IL-2): 34 ± 4%
Cytotoxicity of NK Cells to MDA-MB-231 Cells ([14]; E:T = 0.5:1, With IL-2): 59 ± 8%
Cytotoxicity of NK Cells to MDA-MB-231 Cells ([14]; E:T = 0.5:1, Without IL-2): 54 ± 8%
fraction of G0/G1 phases of NK cells (human NK cells [15]): concomitant decrease
fraction of S and G2/M phases of NK cells (human NK cells [15]): increased
